In patent US20240366612A1, “COMPOUNDS AND METHODS FOR MODULATING NUCLEIC ACID SPLICING” (REMIX THERAPEUTICS INC., priority 2021, published 2024):
pIC50: −log10 of the molar value. Where a name gives a salt, the structure may show the parent alone.

Key:
[1] = system: HTT CJ mRNA; test: Gene panel canonical junction qPCR assay, HTT; format: cell-based; conditions: Homo sapiens, larger gene panel, read-out: HTT IC50 (decrease in CJ mRNA levels)
In short: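 A673 or K562 cells treated 24 h with 11-point 3-fold dilutions (top 10 µM, ≤0.25% DMSO) at 37 °C. Canonical exon-junction mRNA measured by probe-based RT-qPCR, normalized to GAPDH, GUSB or PPIA and DMSO (2^−ΔΔCt), converted to percent response over a fixed ΔCt window; IC50 from 4-parameter fit.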

[2] = in vitro; conditions: human
Experimental: Compounds described herein were screened for toxicity in K562 (human chronic myelogenous leukemia) cells using a Cell Titer Glo 2.0 assay.
• Promega CellTiter-Gbo® 2.0 Cell Viability Assay (cat #G9241) • Corning 384-well TC-treated microplates (cat #3570)
Cells were plated at 500 cells/well (K562 cells) in 45 μL of IMDM supplemented with 10% FBS in a 384-well opaque plate. Wells containing only medium were used as a blank control. Test compounds (e.g., compounds of Formula (I), (II), and (III)) were first serially diluted in DMSO then diluted 1:100 with IMDM+10% FBS. The final concentration of DMSO was 0.1% in each well. The cells were incubated for 72 hours at 37° C. and 5% CO2 before assaying with Cell Titer Glo 2.0 reagent.

Row | Compound | pIC50 [1] | GI50 at 72 h [2] [nM]
1 | Cc1cn2nc(-c3cc(=O)n4cc(N(C)C5CC(C)(C)NC(C)(C)C5)sc4n3)cc(C)c2n1 [Compound 205, 7-(2,8-dimethylimidazo[1,2-b]pyridazin-6-yl)-2-(methyl(2,2,6,6-tetramethylpiperidin-4-yl)amino)-5H-thiazolo[3,2-a]pyrimidin-5-one] | 5.00 to 6.00 | 1000 to 10000
2 | Cc1cn2cc(-n3cnc4nc(N(C)C5CC(C)(C)NC(C)(C)C5)sc4c3=O)cc(F)c2n1 [Compound 227, 6-(8-fluoro-2-methylimidazo[1,2-a]pyridin-6-yl)-2-(methyl(2,2,6,6-tetramethylpiperidin-4-yl)amino)thiazolo[4,5-d]pyrimidin-7(6H)-one, formate] | < 5.00 | > 10000
3 | Cc1cn2cc(-c3nn4c(=O)cc(N(C)C5CC(C)(C)NC(C)(C)C5)nc4s3)cc(F)c2n1 [Compound 215, 2-(8-fluoro-2-methylimidazo[1,2-a]pyridin-6-yl)-7-(methyl(2,2,6,6-tetramethylpiperidin-4-yl)amino)-5H-[1,3,4]thiadiazolo[3,2-a]pyrimidin-5-one] | 5.00 to 6.00 | 1000 to 10000
4 | Cn1cc2cc(-c3cc4ncn(C5CCNCC5)c(=O)c4s3)c(F)cc2n1 [Compound 258] | 6.00 to 7.00 | –
5 | Cc1cn2nc(-c3cc4ncn(C5CCNCC5)c(=O)c4s3)cc2c(C)n1 [Compound 262] | 6.00 to 7.00 | –
6 | Cc1cn2nc(-c3nc4ncn(C5CCNCC5)c(=O)c4s3)cc(C)c2n1 [Compound 231, 2-(2,8-dimethylimidazo[1,2-b]pyridazin-6-yl)-6-(piperidin-4-yl)thiazolo[4,5-d]pyrimidin-7(6H)-one] | 6.00 to 7.00 | –

Continued, in another order:

Row | pIC50 [1] | Compound | GI50 at 72 h [2] [nM]
7 | < 5.00 | Cc1cc(-c2cc(=O)n3nc(N4CCN(C)CC4)sc3n2)cc2cn(C)nc12 [Compound 157, 7-(2,7-dimethyl-2H-indazol-5-yl)-2-(4-methylpiperazin-1-yl)-5H-[1,3,4]thiadiazolo[3,2-a]pyrimidin-5-one] | –
8 | 6.00 to 7.00 | Cc1cn2nc(-c3cc4ncn(C5CCNCC5)c(=O)c4s3)cc(C)c2n1 [Compound 238, 6-(2,8-dimethylimidazo[1,2-b]pyridazin-6-yl)-3-(piperidin-4-yl)thieno[3,2-d]pyrimidin-4(3H)-one] | –
9 | 5.00 to 6.00 | Cc1cc(-c2nn3c(=O)cc(N4CCN(C)CC4)nc3s2)cc2cn(C)nc12 [Compound 210, 2-(2,7-dimethyl-2H-indazol-5-yl)-7-(4-methylpiperazin-1-yl)-5H-[1,3,4]thiadiazolo[3,2-a]pyrimidin-5-one] | –
